# Results as given in the Bradley open melting point set (2014).
# “And” between values parts separate entries of the source, which are not always exact repeats. Equal values may be shown once.
row,Structure (SMILES),melting point
1,"Cc1ccc([N+](=O)[O-])c(C)c1 [2,4-Dimethyl-1-nitrobenzene]",7 °C
2,"CCOC(=O)C1=C(C)C(C(=O)OCC)N=C1C (stereo unspecified) [2,4-Dimethyl-3,5-dicarbethoxypyrrole]",137 °C
3,"Cc1ccc(N)c(C)c1 [2,4-Dimethylaniline]",16 °C
4,"O=[N+]([O-])c1ccc(Nc2ccccc2)c([N+](=O)[O-])c1 [2,4-Dinitro-N-phenylaniline]",160 °C
5,"O=Cc1ccc(Cl)cc1Cl [2,4-dichlorobenzaldehyde]",73 °C
6,"OB(O)c1ccc(Cl)cc1Cl [2,4-dichlorobenzeneboronic acid]",244 °C
7,"O=C(O)c1ccc(Cl)cc1Cl [2,4-dichlorobenzoic acid]",162 °C
8,"O=[N+]([O-])c1ccc(F)cc1F [2,4-difluoro-1-nitrobenzene]",10 °C
9,"OB(O)c1ccc(F)cc1F [2,4-difluorobenzeneboronic acid]",249 °C
10,"O=Cc1ccc(O)cc1O [2,4-dihydroxybenzaldehyde]",136 °C
11,"COc1ccc(/C=C/[N+](=O)[O-])c(OC)c1 [2,4-dimethoxy-beta-nitrostyrene]",100 °C
12,"COc1ccc(N)c(OC)c1 [2,4-dimethoxyaniline]",35 °C
13,"COc1ccc(C=NO)c(OC)c1 [2,4-dimethoxybenzaldoxime]",107 °C
14,"COc1ccc(B(O)O)c(OC)c1 [2,4-dimethoxybenzeneboronic acid]",118 °C
15,"Cc1ccc(O)c(C)c1 [2,4-dimethylphenol]",27 °C
16,"O=Cc1ccc([N+](=O)[O-])cc1[N+](=O)[O-] [2,4-dinitrobenzaldehyde] [listing 1 of 2 here]",66 °C
17,"O=Cc1ccc([N+](=O)[O-])cc1[N+](=O)[O-] [2,4-dinitrobenzaldehyde] [listing 2 of 2 here]",67 °C
18,"CC(=O)CC(C)=O [2,4-pentanedione]",-23 °C
19,"CC(C)(C)c1cc(O)c(C(C)(C)C)cc1O [2,5-Di-tert-butylbenzene-1,4-diol]",218 °C
20,"O=C1C=C(Cl)C(=O)C=C1Cl [2,5-Dichloro-1,4-benzoquinone]",162 °C
21,"O=C(O)c1cc(O)ccc1O [2,5-Dihydroxybenzoic acid] [listing 1 of 2 here]",205 °C
22,"O=C(O)c1cc(O)ccc1O [2,5-Dihydroxybenzoic acid] [listing 2 of 2 here]",206 °C
23,"Cc1ccc(C)c(-c2ccc([N+](=O)[O-])cc2)c1 [2,5-Dimethyl-4'-nitrobiphenyl]",98.3 °C
24,"Nc1ccc(N)nc1 [2,5-diaminopyridine]",96 °C

row,Structure (SMILES),melting point
1,"O=C(O)c1cc(Cl)cc([N+](=O)[O-])c1Cl [2,5-dichloro-3-nitrobenzoic acid]",220 °C
2,"Cc1cc(Cl)c(C)cc1Cl [2,5-dichloro-p-xylene]",69 °C
3,"N#Cc1cc(Cl)ccc1Cl [2,5-dichlorobenzonitrile]",130 °C
4,"Oc1cc(Cl)ccc1Cl [2,5-dichlorophenol]",57 °C
5,"NNc1cc(Cl)ccc1Cl [2,5-dichlorophenylhydrazine]",104 °C
6,"O=C(O)c1cc(Cl)sc1Cl [2,5-dichlorothiophene-3-carboxylic acid]",148 °C
7,"Cc1cc(Cl)ccc1Cl [2,5-dichlorotoluene]",5 °C
8,"O=C(O)c1cc(O)ccc1O [2,5-dihydroxybenzoic acid]",200 °C and 205 °C
9,"O=C(O)c1cc(O)ccc1O [2,5-dihydroxybenzoic_acid]",205 °C
10,"COc1ccc(OC)c(S(N)(=O)=O)c1 [2,5-dimethoxybenzenesulfonamide]",147 °C
11,"COc1ccc(OC)c(C)c1 [2,5-dimethoxytoluene]",20 °C
12,"Cc1cc(C=O)c(C)n1-c1ccccc1 [2,5-dimethyl-1-phenylpyrrole-3-carboxaldehyde]",89 °C
13,"Cc1ccc(C)n1-c1ccccc1 [2,5-dimethyl-1-phenylpyrrole]",50 °C
14,"Cc1ccc(C)c(N)c1 [2,5-dimethylaniline]",15 °C
15,"Cc1ccc(C)c(B(O)O)c1 [2,5-dimethylbenzeneboronic acid]",180 °C
16,"Cc1ccc2sc(C)nc2c1 [2,5-dimethylbenzothiazole]",40 °C
17,"Cc1ccc(C)c(/C=C/C(=O)O)c1 [2,5-dimethylcinnamic acid]",130 °C
18,"Cc1ccc(C)c(O)c1 [2,5-dimethylphenol]",74.8 °C and 76 °C
19,"Cc1ccc(C)c(CC(=O)O)c1 [2,5-dimethylphenylacetic acid]",128 °C
20,"c1ccc(-c2nnc(-c3ccccc3)o2)cc1 [2,5-diphenyl-1,3,4-oxadiazole]",140 °C
21,"N#Cc1c(Cl)cccc1Cl [2,6-Dichlorobenzonitrile]",144 °C
22,"O=[N+]([O-])c1cc(I)c(O)c(I)c1 [2,6-Diiodo-4-nitrophenol]",157 °C
23,"Cc1cc(CO)c(O)c(CO)c1 [2,6-bis(hydroxymethyl)-p-cresol]",123 °C
24,"CC(C)(C)c1cccc(C(C)(C)C)c1O [2,6-di-tert-butylphenol]",37 °C

row,Structure (SMILES),melting point
1,"Cc1c(N)cccc1N [2,6-diaminotoluene]",105 °C
2,"Nc1c(Br)cccc1Br [2,6-dibromoaniline]",81 °C
3,"Cc1cc(Cl)nc(Cl)c1C#N [2,6-dichloro-4-methylnicotinonitrile]",113 °C
4,"O=C(O)c1cc(F)c(Cl)nc1Cl [2,6-dichloro-5-fluoronicotinic acid]",154 °C
5,"O=Cc1c(Cl)cccc1Cl [2,6-dichlorobenzaldehyde] [listing 1 of 2 here]",71 °C and 71.5 °C
6,"O=Cc1c(Cl)cccc1Cl [2,6-dichlorobenzaldehyde] [listing 2 of 2 here]",71 °C
7,"O=C(O)Cc1c(Cl)cccc1Cl [2,6-dichlorophenylacetic acid]",160 °C
8,"Cc1c(Cl)cccc1Cl [2,6-dichlorotoluene]",2 °C
9,"CC(C)c1cccc(C(C)C)c1N [2,6-diisopropylaniline]",-54 °C
10,"CC(C)c1cccc(C(C)C)c1O [2,6-diisopropylphenol]",18 °C
11,"COc1ccc2cc(OC)ccc2c1 [2,6-dimethoxynaphthalene]",153 °C
12,"COc1ccc(B(O)O)c(OC)n1 [2,6-dimethoxypyridine-3-boronic acid]",129 °C
13,"COc1cccc(OC)c1C [2,6-dimethoxytoluene]",40 °C
14,"CC(C)CCCC(C)(C)O [2,6-dimethyl-2-heptanol]",-10 °C
15,"Cc1cccc(C)c1N [2,6-dimethylaniline]",11 °C
16,"Cc1cccc(C)c1O [2,6-dimethylphenol]",46 °C
17,"[C-]#[N+]c1c(C)cccc1C [2,6-dimethylphenyl isocyanide]",74 °C
18,"Cc1cncc(C)n1 [2,6-dimethylpyrazine]",41 °C
19,"Nc1c([N+](=O)[O-])cccc1[N+](=O)[O-] [2,6-dinitroaniline]",133 °C
20,"Oc1ccc2ccc(O)cc2c1 [2,7-dihydroxynaphthalene]",186 °C
21,"CC(C)(C)C(=O)Nc1ccccc1B(O)O [2-(2,2,2-trimethylacetamido)benzeneboronic acid]",270 °C
22,"O=C1CCC(N2C(=O)c3ccccc3C2=O)C(=O)N1 (stereo unspecified) [2-(2,6-Dioxopiperidin-3-yl)-1H-isoindole-1,3(2H)-dione]",270 °C
23,Cc1ncc([N+](=O)[O-])n1CCO [2-(2-Methyl-5-nitro-1H-imidazol-1-yl)ethanol],160 °C
24,Nc1ccccc1NNc1ccccc1 [2-(2-phenylhydrazino)aniline],107 °C

row,Structure (SMILES),melting point
1,"COc1ccc(CCN)cc1OC [2-(3,4-dimethoxyphenyl)ethylamine]",11 °C
2,CC(C)Cc1ccc(C(C)C(=O)O)cc1 (stereo unspecified) [2-(4-Isobutylphenyl)propanoic acid],77.5 °C
3,Nc1ccccc1N1CCOCC1 [2-(4-morpholinyl)aniline],97 °C
4,O=C(O)CSc1cccc2cccc(Cl)c12 [2-(8-chloro-1-naphthylthio)acetic acid],156 °C
5,CN(C)CCO [2-(Dimethylamino)ethanol],-70 °C
6,OCc1ccccc1O[C@@H]1O[C@H](CO)[C@@H](O)[C@H](O)[C@H]1O [2-(Hydroxymethyl)phenyl beta-D-glucopyranoside],199 °C
7,OCc1ccccc1OC1OC(CO)C(O)C(O)C1O (stereo unspecified) [2-(Hydroxymethyl)phenyl hexopyranoside],199 °C
8,COc1ccc(C=C[N+](=O)[O-])cc1OCc1ccccc1 [2-(benzyloxy)-1-methoxy-4-(2-nitrovinyl)benzene],120 °C
9,Cc1ccccc1-c1ccccc1P(C(C)(C)C)C(C)(C)C [2-(di-tert-butylphosphino)-2'-methylbiphenyl],92 °C
10,CN(C)CCO [2-(dimethylamino)ethanol],-60 °C
11,CCNCCO [2-(ethylamino)ethanol],-9 °C
12,CS(=O)(=O)c1cccs1 [2-(methylsulfonyl)thiophene],48 °C
13,Cc1ccc(S(=O)(=O)CCO)cc1 [2-(p-toluenesulfonyl)ethanol],52 °C
14,Cc1ccc(Oc2ccccc2C=O)cc1 [2-(p-tolyloxy)benzaldehyde],55 °C
15,NC(=O)c1ccccc1OC(F)(F)F [2-(trifluoromethoxy)benzamide],154 °C
16,OB(O)c1ccccc1OC(F)(F)F [2-(trifluoromethoxy)benzeneboronic acid],119 °C
17,Nc1ccccc1C(F)(F)F [2-(trifluoromethyl)aniline],-30 °C and -29 °C
18,CC(=O)Oc1ccccc1C(=O)O [2-Acetoxybenzoic acid],139 °C
19,NCCS(=O)(=O)O [2-Aminoethanesulfonic acid],300 °C
20,C=C(CC1c2ccccc2C(=O)N1Cc1ccccc1)c1ccccc1 (stereo unspecified) [2-Benzyl-3-(2-phenyl-2-propenyl)isoindolin-1-one],70.5 °C
21,O=C(O)c1ccccc1Br [2-Bromobenzoic acid],149 °C
22,"CSC(SC)=C(C#N)C(N)=O [2-Cyano-3,3-bis(methylsulfanyl)acrylamide]",102 °C
23,CCOC(C)(C)C [2-Ethoxy-2-methylpropane],-94 °C
24,CCOCCO [2-Ethoxyethanol],-90 °C
